In assay [1] the test system is fibrinogen-mediated platelet aggregation. Briefly: Aggregometry assay of free peptides in platelet-rich plasma. In kind it is cell-based, human. As for the experimental part: Affinity of free lRGD and cRGD peptides to bind activated platelets was characterized by ‘half maximal Inhibitory Concentration’ (IC50) value, which, in our assays, was the concentration of peptide required to inhibit fibrinogen-mediated platelet aggregation in platelet-rich plasma (PRP) by 50%, in an aggregometry (Bio/Data, PAP-4) set-up. PRP was prepared from citrated human whole blood by centrifugation at 800 RPM for 15 min at 25° C. 50 μl aliquots of PRP were warmed to 37° C. for 2 minutes, incubated with various concentrations of lRGD and cRGD peptide in the presence of agonist adenosine di-phosphate (ADP, 10 μM) and the maximal aggregation percentage was determined while stifling for 15 min. Consequently, from the maximal aggregation percentage and comparison to aggregation without peptides, inhibition percentage was determined.

The target of assay [2] is GPIIb-IIIa (αIIbβ3) (Homo sapiens, UniProt P05106+P08514). The conditions noted are these: reported in literature; cited from earlier work.
Chain of GPIIb-IIIa (αIIbβ3) (P08514 32-887 limits assumed): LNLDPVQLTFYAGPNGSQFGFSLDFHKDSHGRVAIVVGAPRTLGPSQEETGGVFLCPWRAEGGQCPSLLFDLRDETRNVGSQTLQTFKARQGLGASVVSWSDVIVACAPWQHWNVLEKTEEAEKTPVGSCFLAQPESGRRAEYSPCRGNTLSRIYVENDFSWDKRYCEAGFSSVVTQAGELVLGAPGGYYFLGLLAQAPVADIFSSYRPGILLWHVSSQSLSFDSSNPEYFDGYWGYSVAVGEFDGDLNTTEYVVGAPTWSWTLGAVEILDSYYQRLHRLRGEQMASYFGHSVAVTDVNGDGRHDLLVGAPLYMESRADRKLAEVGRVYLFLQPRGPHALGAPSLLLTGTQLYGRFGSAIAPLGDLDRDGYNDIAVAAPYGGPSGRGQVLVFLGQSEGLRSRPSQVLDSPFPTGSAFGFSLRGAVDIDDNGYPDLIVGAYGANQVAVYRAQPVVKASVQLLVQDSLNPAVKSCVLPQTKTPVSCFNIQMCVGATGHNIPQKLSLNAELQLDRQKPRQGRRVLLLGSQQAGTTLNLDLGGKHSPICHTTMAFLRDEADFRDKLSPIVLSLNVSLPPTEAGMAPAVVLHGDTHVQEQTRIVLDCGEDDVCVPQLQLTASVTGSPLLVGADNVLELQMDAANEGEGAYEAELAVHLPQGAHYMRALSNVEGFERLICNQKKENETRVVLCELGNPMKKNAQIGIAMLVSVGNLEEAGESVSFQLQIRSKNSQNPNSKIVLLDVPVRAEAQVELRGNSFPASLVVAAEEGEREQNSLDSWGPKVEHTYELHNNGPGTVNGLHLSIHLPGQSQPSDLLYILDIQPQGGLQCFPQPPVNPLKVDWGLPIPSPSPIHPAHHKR
Chain of GPIIb-IIIa (αIIbβ3) (P08514 891-1039 partner limits assumed): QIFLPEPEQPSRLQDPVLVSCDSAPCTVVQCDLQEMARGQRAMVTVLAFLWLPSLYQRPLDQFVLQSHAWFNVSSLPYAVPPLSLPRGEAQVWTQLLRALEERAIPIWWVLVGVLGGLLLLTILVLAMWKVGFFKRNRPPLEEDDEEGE
Chain of GPIIb-IIIa (αIIbβ3) (P05106 27-788): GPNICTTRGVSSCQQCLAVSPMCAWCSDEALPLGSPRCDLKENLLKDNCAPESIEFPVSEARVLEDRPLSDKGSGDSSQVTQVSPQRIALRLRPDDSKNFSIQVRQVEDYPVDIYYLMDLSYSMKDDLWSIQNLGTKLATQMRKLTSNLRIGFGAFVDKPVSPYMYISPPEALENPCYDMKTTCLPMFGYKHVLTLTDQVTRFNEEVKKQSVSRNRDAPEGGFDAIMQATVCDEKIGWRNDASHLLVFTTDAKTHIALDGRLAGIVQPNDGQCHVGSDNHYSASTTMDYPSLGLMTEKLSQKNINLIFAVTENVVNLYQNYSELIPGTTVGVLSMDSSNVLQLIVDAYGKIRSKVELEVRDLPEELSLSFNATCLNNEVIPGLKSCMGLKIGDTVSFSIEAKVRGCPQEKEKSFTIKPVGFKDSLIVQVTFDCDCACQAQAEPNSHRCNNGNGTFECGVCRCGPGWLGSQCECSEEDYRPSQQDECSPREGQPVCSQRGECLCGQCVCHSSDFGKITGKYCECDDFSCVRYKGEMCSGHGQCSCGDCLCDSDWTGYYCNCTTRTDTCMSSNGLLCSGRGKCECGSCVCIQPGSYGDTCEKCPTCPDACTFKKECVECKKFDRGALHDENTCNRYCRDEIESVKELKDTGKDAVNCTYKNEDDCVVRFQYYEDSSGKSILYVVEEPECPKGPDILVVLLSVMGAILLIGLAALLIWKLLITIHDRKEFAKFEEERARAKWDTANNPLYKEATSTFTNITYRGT

Turning to cyclo-CNPRGDY(-OEt)RC [cRGD], the “IC50 by aggregometry, lower compared to lRGD” value in assay [1] (FIG. 18 legend) is on record as ~2 orders of magnitude. Moreover, the “IC50 (inhibition of platelet aggregation) relative to lRGD” value in assay [1] (PRP, ADP 10 μM, 37° C.) is “about 1000 times lower”. For the same substance, in assay [2], the “affinity and selectivity for GPIIb-IIIa compared with αvβ3, αvβ5 and α5β1” value is “high affinity and selectivity for GPIIb-IIIa”.
